Some results are limits rather than exact numbers.

In general, EC50 refers to the midpoint of the concentration-response curve.

The subject of the assay is HEK293T cells carrying the ATF4 luciferase reporter. The assay can be described thus: ATF4-Luc assay, in vitro model of Vanishing Cell White Matter Disease (VWMD). The assay is classed as cell-based. As to conditions: Homo sapiens, HEK-293T, 1 μg/mL tunicamycin, 7 hours, One Glo luminescence. In short, it runs like this: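 Reporter cells were stably generated by retroviral transduction and puromycin selection, then seeded at 30,000 cells/well. Next day, cells received 1 μg/mL tunicamycin with 200 nM test compound for 7 h, and luciferase luminescence was read with a one-step reagent. Values reported as EC50.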
As for `N#Cc1cccc(C(=O)NC23CCC(NC(=O)COc4ccc(Cl)c(F)c4)(CC2)CC3O)c1` (centres unmarked) [Compound 209, N-{4-[2-(4-chloro-3-fluorophenoxy)acetamido]-2-hydroxybicyclo[2.2.2]octan-1-yl}-3-cyanobenzamide], the concentration for a half-maximal effect (EC50) was 250 to 1000 nM. Regarding `N#Cc1ccc(C(=O)NC23CCC(NC(=O)COc4ccc(Cl)c(F)c4)(CC2)CC3O)cc1` (centres unmarked) [Compound 210, N-{4-[2-(4-chloro-3-fluorophenoxy)acetamido]-2-hydroxybicyclo[2.2.2]octan-1-yl}-4-cyanobenzamide], the EC50 fell in the range of 250 to 1000 nM. For `O=C(COc1ccc(Cl)c(F)c1)NC12CCC(NC(=O)c3ccc4c(c3)OCO4)(CC1)C(O)C2` (centres unmarked) [Compound 211, N-{4-[2-(4-chloro-3-fluorophenoxy)acetamido]-2-hydroxybicyclo[2.2.2]octan-1-yl}-2H-1,3-benzodioxole-5-carboxamide], the EC50 fell in the range of 1000 to 2000 nM. For the compound `O=C(COc1ccc(Cl)c(F)c1)NC12CCC(NC(=O)c3cscn3)(CC1)C(O)C2` (centres unmarked) [Compound 212, N-{4-[2-(4-chloro-3-fluorophenoxy)acetamido]-2-hydroxybicyclo[2.2.2]octan-1-yl}-1,3-thiazole-4-carboxamide], the EC50 lay in the range of 250 to 1000 nM.

Turning to `O=C(COc1ccc(Cl)c(F)c1)NC12CCC(NC(=O)c3cncs3)(CC1)C(O)C2` (centres unmarked) [Compound 213, N-{4-[2-(4-chloro-3-fluorophenoxy)acetamido]-2-hydroxybicyclo[2.2.2]octan-1-yl}-1,3-thiazole-5-carboxamide], the EC50 fell in the range of 250 to 1000 nM. As for `O=C(COc1ccc(Cl)c(F)c1)NC12CCC(NC(=O)c3cn[nH]c3)(CC1)C(O)C2` (centres unmarked) [Compound 214, N-{4-[2-(4-chloro-3-fluorophenoxy)acetamido]-2-hydroxybicyclo[2.2.2]octan-1-yl}-1H-pyrazole-4-carboxamide], the EC50 is above 2000 nM. For the compound `O=C(COc1ccc(Cl)c(F)c1)NC12CCC(NC(=O)c3ccno3)(CC1)C(O)C2` (centres unmarked) [Compound 215, N-{4-[2-(4-chloro-3-fluorophenoxy)acetamido]-2-hydroxybicyclo[2.2.2]octan-1-yl}-1,2-oxazole-5-carboxamide], the EC50 lay in the range of 50 to 250 nM. For the compound `Cc1noc(C)c1C(=O)NC12CCC(NC(=O)COc3ccc(Cl)c(F)c3)(CC1)CC2O` (centres unmarked) [Compound 216, N-{4-[2-(4-chloro-3-fluorophenoxy)acetamido]-2-hydroxybicyclo[2.2.2]octan-1-yl}-3,5-dimethyl-1,2-oxazole-4-carboxamide], the EC50 is above 2000 nM. In the case of `O=C(COc1ccc(Cl)c(F)c1)NC12CCC(NC(=O)c3cccnc3)(CC1)C(O)C2` (centres unmarked) [Compound 217, N-{4-[2-(4-chloro-3-fluorophenoxy)acetamido]-2-hydroxybicyclo[2.2.2]octan-1-yl}pyridine-3-carboxamide], the EC50 is 1000 to 2000 nM. With `O=C(COc1ccc(Cl)c(F)c1)NC12CCC(NC(=O)c3ccncc3)(CC1)C(O)C2` (centres unmarked) [Compound 218, N-{4-[2-(4-chloro-3-fluorophenoxy)acetamido]-2-hydroxybicyclo[2.2.2]octan-1-yl}pyridine-4-carboxamide], the EC50 was above 2000 nM. As for `O=C(COc1ccc(Cl)c(F)c1)NC12CCC(NC(=O)c3cnccn3)(CC1)C(O)C2` (centres unmarked) [Compound 219, N-{4-[2-(4-chloro-3-fluorophenoxy)acetamido]-2-hydroxybicyclo[2.2.2]octan-1-yl}pyrazine-2-carboxamide], the EC50 lay within 50 to 250 nM. `Cc1cnc(C(=O)NC23CCC(NC(=O)COc4ccc(Cl)c(F)c4)(CC2)CC3O)cn1` (centres unmarked) [Compound 220, N-{4-[2-(4-chloro-3-fluorophenoxy)acetamido]-2-hydroxybicyclo[2.2.2]octan-1-yl}-5-methylpyrazine-2-carboxamide]: the EC50 is 50 to 250 nM.

In the case of `Cc1c(C(=O)NC23CCC(NC(=O)COc4ccc(Cl)c(F)c4)(CC2)CC3O)cnn1-c1ccccc1` (centres unmarked) [Compound 221, N-{4-[2-(4-chloro-3-fluorophenoxy)acetamido]-2-hydroxybicyclo[2.2.2]octan-1-yl}-5-methyl-1-phenyl-1H-pyrazole-4-carboxamide], the EC50 was in the range of 1000 to 2000 nM. As to `O=C(COc1ccc(Cl)c(F)c1)NC12CCC(NC(=O)c3coc4c3C(=O)CCC4)(CC1)C(O)C2` (centres unmarked) [Compound 222, N-{4-[2-(4-chloro-3-fluorophenoxy)acetamido]-2-hydroxybicyclo[2.2.2]octan-1-yl}-4-oxo-4,5,6,7-tetrahydro-1-benzofuran-3-carboxamide], the EC50 was above 2000 nM. Turning to `O=C(COc1ccc(Cl)c(F)c1)NC12CCC(NC(=O)c3cnc4ccccc4n3)(CC1)C(O)C2` (centres unmarked) [Compound 223, N-{4-[2-(4-chloro-3-fluorophenoxy)acetamido]-2-hydroxybicyclo[2.2.2]octan-1-yl}quinoxaline-2-carboxamide], the EC50 was in the range of 50 to 250 nM. For the compound `O=C(COc1ccc(Cl)c(F)c1)NC12CCC(NC(=O)c3ccn[nH]3)(CC1)C(O)C2` (centres unmarked) [Compound 224, N-{4-[2-(4-chloro-3-fluorophenoxy)acetamido]-2-hydroxybicyclo[2.2.2]octan-1-yl}-1H-pyrazole-5-carboxamide], the EC50 was in the range of 250 to 1000 nM. Take `O=C(COc1ccc(Cl)c(F)c1)NC12CCC(NC(=O)c3ccc(OC(F)(F)F)cc3)(CC1)C(O)C2` (centres unmarked) [Compound 225, N-{4-[2-(4-chloro-3-fluorophenoxy)acetamido]-2-hydroxybicyclo[2.2.2]octan-1-yl}-4-(trifluoromethoxy)benzamide]: the EC50 was in the range of 50 to 250 nM. For `O=C(COc1ccc(Cl)c(F)c1)NC12CCC(NC(=O)c3ccncn3)(CC1)C(O)C2` (centres unmarked) [Compound 226, N-{4-[2-(4-chloro-3-fluorophenoxy)acetamido]-2-hydroxybicyclo[2.2.2]octan-1-yl}pyrimidine-4-carboxamide], the EC50 lay in the range of 250 to 1000 nM. With `O=C(COc1ccc(Cl)c(F)c1)NC12CCC(NC(=O)c3cccnn3)(CC1)C(O)C2` (centres unmarked) [Compound 227, N-{4-[2-(4-chloro-3-fluorophenoxy)acetamido]-2-hydroxybicyclo[2.2.2]octan-1-yl}pyridazine-3-carboxamide], the concentration for a half-maximal effect (EC50) was in the range of 250 to 1000 nM. Consider `Cc1ccc(C(=O)NC23CCC(NC(=O)COc4ccc(Cl)c(F)c4)(CC2)CC3O)cn1` (centres unmarked) [Compound 228, N-{4-[2-(4-chloro-3-fluorophenoxy)acetamido]-2-hydroxybicyclo[2.2.2]octan-1-yl}-6-methylpyridine-3-carboxamide], for which the EC50 is above 2000 nM.

Regarding `O=C(COc1ccc(Cl)c(F)c1)NC12CCC(NC(=O)c3cnc(C(F)F)cn3)(CC1)CC2O` (centres unmarked) [Compound 229, N-{4-[2-(4-chloro-3-fluorophenoxy)acetamido]-3-hydroxybicyclo[2.2.2]octan-1-yl}-5-(difluoromethyl)pyrazine-2-carboxamide], the EC50 is 50 to 250 nM. For `O=C(COc1ccc(Cl)c(F)c1)NC12CCC(NC(=O)c3ccc(F)cn3)(CC1)CC2O` (centres unmarked) [Compound 230, N-{4-[2-(4-chloro-3-fluorophenoxy)acetamido]-3-hydroxybicyclo[2.2.2]octan-1-yl}-5-fluoropyridine-2-carboxamide] the value was 50 to 250 nM; for `O=C(COc1ccc(Cl)c(F)c1)NC12CCC(NC(=O)c3ccc(F)cc3)(CC1)CC2O` (centres unmarked) [Compound 231, N-{4-[2-(4-chloro-3-fluorophenoxy)acetamido]-3-hydroxybicyclo[2.2.2]octan-1-yl}-4-fluorobenzamide], 50 to 250 nM; for `CC(C)Oc1ccc(C(=O)NC23CC(NC(=O)COc4ccc(Cl)c(F)c4)(C2)C3)cc1` [Compound 232, N-{3-[2-(4-chloro-3-fluorophenoxy)acetamido]bicyclo[1.1.1]pentan-1-yl}-4-[(propan-2-yl)oxy]benzamide], 50 to 250 nM. For the compound `O=C(COc1ccc(Cl)c(F)c1)NC12CC(NC(=O)c3ccc(C(F)F)cn3)(C1)C2` [Compound 233, N-{3-[2-(4-chloro-3-fluorophenoxy)acetamido]bicyclo[1.1.1]pentan-1-yl}-5-(difluoromethyl)pyridine-2-carboxamide], the EC50 is below 50 nM. On to `O=C(COc1ccc(Cl)c(F)c1)NC12CC(NC(=O)c3ccc4c(c3)OC(F)(F)O4)(C1)C2` [Compound 234, N-{3-[2-(4-chloro-3-fluorophenoxy)acetamido]bicyclo[1.1.1]pentan-1-yl}-2,2-difluoro-2H-1,3-benzodioxole-5-carboxamide], for which the EC50 is below 50 nM. For the compound `O=C(COc1ccc(Cl)c(F)c1)NC12CC(NC(=O)c3ccc(OC4COC4)nc3)(C1)C2` [Compound 237, N-{3-[2-(4-chloro-3-fluorophenoxy)acetamido]bicyclo[1.1.1]pentan-1-yl}-6-[(oxetan-3-yl)oxy]pyridine-3-carboxamide], the concentration giving a half-maximal response (EC50) lay within 250 to 1000 nM. Take `Cc1nc(C)c(C(=O)NC23CC(NC(=O)COc4ccc(Cl)c(F)c4)(C2)C3)s1` [Compound 238, N-{3-[2-(4-chloro-3-fluorophenoxy)acetamido]bicyclo[1.1.1]pentan-1-yl}-2,4-dimethyl-1,3-thiazole-5-carboxamide]: the 50% effective concentration (EC50) was in the range of 50 to 250 nM. For `O=C(COc1ccc(Cl)c(F)c1)NC12CC(NC(=O)c3ccc4c(c3)OCO4)(C1)C2` [Compound 239, N-{3-[2-(4-chloro-3-fluorophenoxy)acetamido]bicyclo[1.1.1]pentan-1-yl}-2H-1,3-benzodioxole-5-carboxamide], the EC50 lay within 50 to 250 nM.

In the case of `O=C(COc1ccc(Cl)c(F)c1)NC12CC(NC(=O)c3cccc4c3OCO4)(C1)C2` [Compound 240, N-{3-[2-(4-chloro-3-fluorophenoxy)acetamido]bicyclo[1.1.1]pentan-1-yl}-2H-1,3-benzodioxole-4-carboxamide], the 50% effective concentration (EC50) was in the range of 1000 to 2000 nM.

Take `Cc1cc(C(=O)NC23CC(NC(=O)COc4ccc(Cl)c(F)c4)(C2)C3)n(C)n1` [Compound 241, N-{3-[2-(4-chloro-3-fluorophenoxy)acetamido]bicyclo[1.1.1]pentan-1-yl}-1,3-dimethyl-1H-pyrazole-5-carboxamide]: the half-maximal effective concentration (EC50) is below 50 nM. In the case of `COCc1ccc(C(=O)NC23CC(NC(=O)COc4ccc(Cl)c(F)c4)(C2)C3)o1` [Compound 242, N-{3-[2-(4-chloro-3-fluorophenoxy)acetamido]bicyclo[1.1.1]pentan-1-yl}-5-(methoxymethyl)furan-2-carboxamide], the EC50 is 50 to 250 nM.

The values are drawn from patent publication US10913727B2, “Modulators of the integrated stress pathway” (Calico Life Sciences LLC, priority 2016, dated 2021).
